Experimental data: patent US6406709B1, “Method for inhibiting nematocyst discharge” (Nidaria Technology Ltd., priority 1997, dated 2002)

Assays:
[1] = tested on: nematocysts of jellyfish or sea anemone tentacles; experiment: Artemia adhesion/paralysis test of nematocyst discharge by tentacle fragments in sea water; assay type: cell-based
Procedure: To initially test inhibition of nematocyst discharge, the following test was performed. It is typical behavior for jellyfish or sea anemone tentacles to adhere to and paralyze newly hatched nauplii of Artemia sp. The adhesion and subsequent paralysis is characteristic of nematocyst discharge by the tentacles. Small 2 to 3 mm fragments of jellyfish or sea anemone tentacles were prepared and placed in a 12-well plate containing filtered sea water. The tentacle fragments were washed by changing the filtered sea water three times. One mL of filtered sea water was left in each well after the final wash. […] The 6 wells without the antihistamine served as controls. Ten Artemia sp. were added to each well in a total volume of between 50 and 100 uL of filtered sea water. After 2 minutes, the number of attached or paralyzed Artemia in each well was measured.

Auzelia nematocysts = experiment: Nematocyst discharge into human skin slides; details: N=3 test, 3 each control; control discharged less than 100
Procedure: (§1) Normal human skin (HS) was obtained from neonatal elective circumcision. The skin was immediately placed into sterile phosphate buffered saline (PBS) containing antibiotic/antimycotic. The tissue was frozen embedded in Tissue-Tek™. The tissue was then sectioned into 50 μm sections using a cryostat. The sections were attached to glass slides coated with polylysine and maintained at −70° C. until time of use. All sections were examined to ensure that they were perpendicular to the plane of the epidermis, exposing cross-sections of epidermis, dermis and sub-cutaneous tissue.
(§2) The slides prepared and frozen as described above were thawed at room temperature. The slides were submersed in sea water for approximately 10 seconds and then attached to jellyfish or sea anemones tentacles for approximately 10 seconds. The tentacles were detached, the slides washed two times with PBS, and blocked using 5% Fetal Bovine serum (FBS), and 0.1% Triton X100 in PBS (blocking solution). All washing and incubation steps were conducted on a tilting shaker at room temperature. The slides were incubated in 10 mL of blocking solution containing a 1:2,500 dilution of the anti-toxin antibody for one hour. After incubation, the slides were washed five times for five minutes each wash with 100 mL of 0.1% TritonX100 in PBS (Wash solution). […]

[2] = tested on: Chrysaora quinquecirrha nematocysts; experiment: Nematocyst discharge into human skin slides, Monterey Bay Aquarium; details: glycerol plus 0.2% diphenhydramine, exposure 10 to 15 seconds
Procedure: as §1, §2

[3] = tested on: Pelagia noctiluca nematocysts; experiment: as above; details: glycerol plus 0.2% diphenhydramine, exposure 10 to 15 seconds
Procedure: as §1, §2

[4] = tested on: isolated nematocyst capsules; details: 50 mM CaCl2; cited from earlier work

Compound	effect on the number of Artemia paralyzed by nematocysts ([1]; 0.02% in sea water, versus sea water alone)	Artemia paralyzed by nematocysts, all wells together ([1]; out of 64 Artemia, 50 of 64 without antihistamine)	decrease in nematocyst discharge (Auzelia nematocysts)	decrease of nematocyst discharge [2]	reduction in nematocyst discharged [3]	discharge of isolated nematocyst capsules [4]
CN(C)CCOC(c1ccccc1)c1ccccc1.Cl [diphenhydramine, diphenhydramine hydrochloride]	significantly decreased	11	ten-fold decrease	2.5-5 fold	significant reduction	–
[Ca+2].[Cl-].[Cl-] [CaCl2]	–	–	–	–	–	do not discharge
